Measurements from ChEMBL document CHEMBL4665792 (J Med Chem, 2020).
The source made the active and inactive calls. No cut-off for these calls is given here.

Key:
[1] = tested on: HT-29; assay: Induction of apoptosis in human HT-29 cells assessed as decrease in expression of Bcl-2 at 0.25 to 1 uM treated for 24 hrs by Western blot analysis; assay type: functional, cell-based
[2] = tested on: HK-2; assay: Cytotoxicity against human HK2 cells assessed as cell viability incubated for 24 hrs by MTT assay; assay type: cell-based; conditions: HK-2, 24 h
[3] = Inhibition of Escherichia coli Trx incubated for 1.5 hrs in presence of DTT and insulin
[4] = tested on: HT-29; assay: Inhibition of TrxR in human HT29 cells assessed as increase in p53 to GAPDH expression ratio at 0.25 to 1 uM incubated for 24 hrs by Western blot analysis; assay type: cell-based
[5] = tested on: HT-29; assay: Down regulation of Trx expression in human HT29 cells at 0.25 to 1 uM incubated for 24 hrs by Western blot analysis; assay type: functional, cell-based
[6] = tested on: HT-29; assay: Down regulation of TrxR expression in human HT29 cells at 0.25 to 1 uM incubated for 24 hrs by Western blot analysis; assay type: functional, cell-based
[7] = tested on: L02; assay: Cytotoxicity against human L02 cells assessed as cell viability incubated for 24 hrs by MTT assay; assay type: cell-based; conditions: L02, 24 h
[8] = tested on: HT-29; assay: Binding affinity to sulfhydryl group in human HT-29 cells assessed as decrease in total content of sulfhydryl groups; assay type: cell-based
[9] = tested on: HT-29; assay: Antiproliferation activity against human HT-29 cells assessed as reduction in monoclonal ability incubated for 24 hrs followed by fresh medium supplementation every 2 to 3 days for 14 days by crystal violet staining based analysis; assay type: functional, cell-based; conditions: dose microM 0.015-0.06, time 24.0 hrs
[10] = Inhibition of TrxR (unknown origin) in presence of NADPH by Ellman's method; design: species or system Homo sapiens
[11] = tested on: HT-29; assay: Antiproliferative activity against human HT-29 cells assessed as reduction in cell viability incubated for 24 hrs by MTT assay; assay type: functional, cell-based; conditions: HT-29, 24 h
[12] = tested on: HT-29; assay: Potency index, ratio of Withangulatin A IC50 to test compound IC50 for antiproliferative activity against human HT-29 cells assessed as reduction in cell viability; assay type: functional
[13] = target: T1, Thioredoxin (Homo sapiens) (UniProt P10599); assay: Inhibition of Trx in human HT-29 cells incubated for 24 hrs in presence of insulin, NADPH and DTT; assay type: cell-based
T1 sequence (whole entry): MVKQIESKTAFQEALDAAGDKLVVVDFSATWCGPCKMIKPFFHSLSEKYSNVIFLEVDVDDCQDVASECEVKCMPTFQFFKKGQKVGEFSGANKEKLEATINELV

[14] = organism: Rattus norvegicus; assay: Binding affinity to rat liver TrxR assessed as SGGDILQSGCUG-adduct formation by measuring retention time at 10 uM incubated for 1.5 hrs by LC-MS/MS analysis
[15] = tested on: HepG2; assay: Antiproliferative activity against human HepG2 cells assessed as reduction in cell viability incubated for 24 hrs by MTT assay; assay type: functional, cell-based; conditions: HepG2, 24 h
[16] = tested on: HT-29; assay: Induction of apoptosis in human HT-29 cells assessed as increase in expression of cleaved PARP at 0.25 to 1 uM treated for 24 hrs by Western blot analysis; assay type: functional, cell-based
[17] = organism: Rattus norvegicus; assay: Binding affinity to rat liver TrxR assessed as RSGGDILQSGCUG-adduct formation by measuring retention time at 10 uM incubated for 1.5 hrs by LC-MS/MS analysis
[18] = tested on: HT-29; assay: Antiproliferation activity against human HT-29 cells assessed as decrease in number of EdU-positive cells at 0.125 to 0.5 uM incubated for 20 hrs followed by addition of EdU-labelling agent measured after 8 hrs by Hoechst-33258 staining based analysis; assay type: functional, cell-based; conditions: dose microM 0.125-0.500, time 28.0 hrs
[19] = tested on: HT-29; assay: Induction of apoptosis in human HT-29 cells assessed as increase in expression of cleaved caspase-3 at 0.25 to 1 uM treated for 24 hrs by western blot analysis; assay type: functional, cell-based
[20] = tested on: HCT-116; assay: Inhibition of TrxR in human HCT-116 cells assessed as increase in production of intracellular ROS incubated for 24 hrs by DCFH-DA staining-based flow cytometric analysis; assay type: cell-based
[21] = Binding affinity to DTT assessed as sulfhydryl group-adduct formation at 5 mg incubated for 1.5 hrs by LC-MS/MS analysis
[22] = Selectivity index, ratio IC50 for human L02 cells to IC50 for human HT-29 cells; assay type: toxicity; conditions: L02 cells versus HT-29 cells, read-out: Ratio IC50
[23] = tested on: HT-29; assay: Inhibition of TrxR in human HT29 cells assessed as decrease in ASK1 to phosphorylated ASK1 expression ratio at 0.25 to 1 uM incubated for 24 hrs by Western blot analysis; assay type: cell-based
[24] = Covalent inhibition of TrxR (unknown origin) assessed as covalent bond formation incubated up to 30 mins in presence of NADPH by Ellman's method; design: species or system Homo sapiens
[25] = tested on: HT-29; assay: Induction of apoptosis in human HT-29 cells assessed as increase in expression of Bax at 0.25 to 1 uM treated for 24 hrs by Western blot analysis; assay type: functional, cell-based
[26] = tested on: MCF7; assay: Antiproliferative activity against human MCF7 cells assessed as reduction in cell viability incubated for 24 hrs by MTT assay; assay type: functional, cell-based; conditions: MCF7, 24 h
[27] = organism: Homo sapiens; assay: Inhibition of TrxR (unknown origin) at 5 uM in presence of NADPH by Ellman's method
[28] = tested on: HT-29; assay: Cell cycle arrest in human HT-29 cells assessed as accumulation at G2/M phase incubated for 24 hrs by propidium iodide staining based flow cytometry; assay type: functional; conditions: dose microM 0.125-0.5, time 24.0 hrs
[29] = Selectivity index, ratio IC50 for human HK2 cells to IC50 for human HT-29 cells
[30] = tested on: HT-29; assay: Induction of apoptosis in human HT-29 cells assessed as cell death at 0.25 to 1 uM incubated for 24 hrs by Annexin V-FITC/propidium iodide staining based flow cytometry; assay type: functional
[31] = tested on: HCT-116; assay: Antiproliferative activity against human HCT-116 cells assessed as reduction in cell viability incubated for 24 hrs by MTT assay; assay type: functional, cell-based; conditions: HCT-116, 24 h
[32] = tested on: HT-29; assay: Inhibition of TrxR in human HT-29 cells incubated for 24 hrs in presence of insulin, NADPH and Trx by DTNB reagent based assay; assay type: cell-based
[33] = target: T2, Glutathione reductase, mitochondrial (Homo sapiens) (UniProt P00390); assay: Inhibition of GR in human HT-29 cells incubated for 24 hrs in presence of GSSG and NADPH; assay type: cell-based
T2 sequence (whole entry): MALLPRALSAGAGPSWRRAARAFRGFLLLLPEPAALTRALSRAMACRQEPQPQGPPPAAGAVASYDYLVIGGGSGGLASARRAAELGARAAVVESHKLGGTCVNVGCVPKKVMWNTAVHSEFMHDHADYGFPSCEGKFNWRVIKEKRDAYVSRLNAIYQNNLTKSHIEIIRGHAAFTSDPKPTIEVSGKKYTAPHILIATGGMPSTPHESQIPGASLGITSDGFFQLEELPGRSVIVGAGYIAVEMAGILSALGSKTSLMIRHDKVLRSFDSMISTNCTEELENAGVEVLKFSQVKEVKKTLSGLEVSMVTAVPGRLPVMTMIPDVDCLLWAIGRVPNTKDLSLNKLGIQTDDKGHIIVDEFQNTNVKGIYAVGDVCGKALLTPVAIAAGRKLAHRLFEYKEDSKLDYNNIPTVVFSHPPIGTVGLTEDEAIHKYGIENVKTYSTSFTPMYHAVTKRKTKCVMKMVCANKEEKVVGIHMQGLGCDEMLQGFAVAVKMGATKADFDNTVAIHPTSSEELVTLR

[34] = Inhibition of TrxR in human HT-29 cells incubated for 30 mins in presence of insulin, NADPH and Trx by DTNB reagent based assay; assay type: cell-based
[35] = tested on: HT-29; assay: Inhibition of TrxR in human HT-29 cells assessed as increase in production of intracellular ROS incubated for 24 hrs by DCFH-DA staining-based flow cytometric analysis; assay type: cell-based
[36] = Inhibition of TrxR in human HT-29 cells incubated for 60 mins in presence of insulin, NADPH and Trx by DTNB reagent based assay; assay type: cell-based
[37] = Binding affinity to NAC assessed as sulfhydryl group-adduct formation at 5 mg by online NMR analysis
[38] = Inhibition of TrxR in human HT-29 cells incubated for 90 mins in presence of insulin, NADPH and Trx by DTNB reagent based assay; assay type: cell-based
[39] = tested on: HT-29; assay: Inhibition of GPx in human HT-29 cells incubated for 24 hrs in presence of GSH, NADPH and GR measured at 10 secs interval for 4 mins; assay type: cell-based; conditions: time 1444.0 min
[40] = tested on: HT-29; assay: Induction of mitochondrial membrane potential loss in human HT-29 cells assessed as decrease in red to green fluorescence intensity ratio at 0.125 to 1 uM incubated for 24 hrs by JC-1 dye based fluorescence spectrophotometric analysis; assay type: functional, cell-based; conditions: dose microM 0.125-1, time 24.0 hrs
[41] = Binding affinity to NAC assessed as sulfhydryl group-adduct formation at 5 mg incubated for 1.5 hrs by LC-MS/MS analysis

## CC(=O)O[C@H]1C=C([C@H](C)[C@H]2CC(C)=C(C)C(=O)O2)[C@@]2(C)CC[C@H]3[C@@H](C[C@H]4O[C@]45[C@@H](OC(=O)/C=C/C(=O)N(C)C)C=CC(=O)[C@]35C)[C@]12O
[1]
  Activity: Active
[2]
  IC50: 4.53 µM
[3]
  IC50: > 2.5 µM
[4]
  inhibition: Active
[5]
  Activity: Active
[6]
  Activity: Active
[7]
  IC50: 5.25 µM
[8]
  Activity: Active
[9]
  Activity: Dose-dependent effect
[10]
  IC50: 0.85 µM
[11]
  IC50: 0.08 µM
[12]
  Ratio IC50: 30
[13]
  inhibition: Active
[14]
  Retention time: 31.7 min
[15]
  IC50: 0.11 µM
[16]
  Activity: Active
[17]
  Retention time: 33.9 min
[18]
  Activity: Active
[19]
  Activity: Active
[20]
  inhibition: Dose-dependent effect
[21]
  Activity: Active
[22]
  selectivity ratio: 66
[23]
  inhibition: Active
[24]
  Ki: 0.932 µM
[25]
  Activity: Active
[26]
  IC50: 0.33 µM
[27]
  inhibition: Active
[28]
  Activity: Dose-dependent effect
[29]
  Ratio IC50: 56
[30]
  Activity: Active
[31]
  IC50: 0.13 µM
[32]
  inhibition: Active
[33]
  inhibition: Active
[34]
  IC50: 0.97 µM
[35]
  inhibition: Dose-dependent effect
[36]
  IC50: 0.87 µM
[37]
  Activity: Active
[38]
  IC50: 0.85 µM
[39]
  inhibition: Active
[40]
  Activity: Active
[41]
  Activity: Active

## O=c1c(O)c(-c2cc(O)c(O)c(O)c2)oc2cc(O)cc(O)c12 [MYRICETIN]
[2]
  IC50: > 20 µM
[7]
  IC50: > 20 µM
[11]
  IC50: > 20 µM
[15]
  IC50: > 20 µM
[26]
  IC50: > 20 µM
[31]
  IC50: > 20 µM
[34]
  IC50: 0.93 µM
[36]
  IC50: 0.72 µM
[38]
  IC50: 0.65 µM

## CC(=O)O[C@H]1C=C([C@H](C)[C@H]2CC(C)=C(C)C(=O)O2)[C@@]2(C)CC[C@H]3[C@@H](C[C@H]4O[C@]45[C@@H](OC(=O)CCC(=O)N(C)C)C=CC(=O)[C@]35C)[C@]12O
[34]
  IC50: 3.81 µM
[36]
  IC50: 2.91 µM
[38]
  IC50: 2.15 µM

## CC(=O)O[C@H]1C=C([C@H](C)[C@H]2CC(C)=C(C)C(=O)O2)[C@@]2(C)CC[C@H]3[C@@H](C[C@H]4O[C@]45[C@@H](O)C=CC(=O)[C@]35C)[C@]12O
[2]
  IC50: 6.41 µM
[3]
  IC50: > 2.5 µM
[7]
  IC50: 8.21 µM
[10]
  IC50: 2.64 µM
[11]
  IC50: 2.48 µM
[13]
  inhibition: Active
[15]
  IC50: 2.85 µM
[24]
  Ki: 9.12 µM
[26]
  IC50: 6.32 µM
[31]
  IC50: 2.37 µM
[32]
  inhibition: Active
[33]
  inhibition: Active
[34]
  IC50: 4.92 µM
[36]
  IC50: 3.35 µM
[38]
  IC50: 2.64 µM
[39]
  inhibition: Active

## C=CC(=O)O[C@H]1C=CC(=O)[C@]2(C)[C@H]3CC[C@]4(C)C([C@H](C)[C@H]5CC(C)=C(C)C(=O)O5)=C[C@H](OC(C)=O)[C@@]4(O)[C@@H]3C[C@H]3O[C@]132
[11]
  IC50: 0.78 µM
[15]
  IC50: 0.52 µM
[26]
  IC50: 1.06 µM
[31]
  IC50: 0.33 µM
[34]
  IC50: 3.91 µM
[36]
  IC50: 2.85 µM
[38]
  IC50: 2.06 µM

## CC(=O)O[C@H]1C=C([C@H](C)[C@H]2CC(C)=C(C)C(=O)O2)[C@@]2(C)CC[C@H]3[C@@H](C[C@H]4O[C@]45[C@@H](O[Si](C)(C)C(C)(C)C)C=CC(=O)[C@]35C)[C@]12O
[11]
  IC50: 1.06 µM
[15]
  IC50: 3.01 µM
[26]
  IC50: 6.14 µM
[31]
  IC50: 1.77 µM
